Read-outs that look alike come from different tables or passages of the source.
How the values were obtained:
[1] = system: Key Broadleaf Weed and Crop Species; experiment: Post-emergent Test II herbicidal activity (Table 5); format: in vivo; conditions: post-emergence, 336 h, 14 days after application
In short: (§1)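 Percent injury, 0 (none) to 100 (complete kill), was judged visually 14 d after spraying young plants at the first or second true leaf stage with compound in an acetone/DMSO aqueous carrier at 187 L/ha. Plants were kept in a greenhouse at 23–29 °C by day.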

[2] = system: Key Grass and Sedge Weeds as well as Grass Crops; experiment: Post-emergent Test II herbicidal activity (Table 6); format: in vivo; conditions: post-emergence, 336 h; for pest or weed control at 70 g/ha: application rate 70 g ai/ha; for pest or weed control at 140 g/ha: application rate 140 g ai/ha
In short: as §1

[3] = CYPES: yellow nutsedge (Cyperus esculentus), read-out: Visual Growth Reduction (%) 14 Days After Application, CYPES
[4] = DIGSA: crabgrass (Digitaria sanguinalis), read-out: Visual Growth Reduction (%) 14 Days After Application, DIGSA
[5] = ECHCG: barnyardgrass (Echinochloa crus-galli), read-out: Visual Growth Reduction (%) 14 Days After Application, ECHCG
[6] = ORYSA: rice (Oryza sativa), read-out: Visual Growth Reduction (%) 14 Days After Application, ORYSA
[7] = SETFA: giant foxtail (Setaria faberi), read-out: Visual Growth Reduction (%) 14 Days After Application, SETFA
[8] = SORVU: grain sorghum (Sorghum vulgare), read-out: Visual Growth Reduction (%) 14 Days After Application, SORVU
[9] = TRZSS (wheat, Triticum aestivum), read-out: Visual Growth Reduction (%) 14 Days After Application, TRZSS
[10] = ZEAMX: maize, corn (Zea mays), read-out: Visual Growth Reduction (%) 14 Days After Application, ZEAMX
[11] = Triticum aestivum, TRZSS (wheat), read-out: Visual Growth Reduction (%) 14 Days After Application, TRZSS

COC(=O)c1nc(-c2cc(F)c(C#N)cc2F)nc(N)c1OC [Compound 208]
pest or weed control at 70 g/ha ([1]; ABUTH: velvetleaf (Abutilon theophrasti), 70 g ai/ha, post-emergent, read-out: Visual Growth Reduction (%) 14 Days After Application ABUTH): 0 to 29% | pest or weed control at 140 g/ha ([1]; ABUTH: velvetleaf (Abutilon theophrasti), 140 g ai/ha, post-emergent, read-out: Visual Growth Reduction (%) 14 Days After Application ABUTH): 0 to 29% | pest or weed control at 70 g/ha ([1]; AMARE: redroot pigweed (Amaranthus retroflexus), 70 g ai/ha, post-emergent, read-out: Visual Growth Reduction (%) 14 Days After Application AMARE): 0 to 29% | pest or weed control at 140 g/ha ([1]; AMARE: redroot pigweed (Amaranthus retroflexus), 140 g ai/ha, post-emergent, read-out: Visual Growth Reduction (%) 14 Days After Application AMARE): 0 to 29% | pest or weed control at 70 g/ha ([1]; BRSNN: oilseed-rape, canola (Brassica napus), 70 g ai/ha, post-emergent, read-out: Visual Growth Reduction (%) 14 Days After Application BRSNN): 0 to 29% | pest or weed control at 140 g/ha ([1]; BRSNN: oilseed-rape, canola (Brassica napus), 140 g ai/ha, post-emergent, read-out: Visual Growth Reduction (%) 14 Days After Application BRSNN): 0 to 29% | pest or weed control at 70 g/ha ([1]; CHEAL: lambsquarters (Chenopodium album), 70 g ai/ha, post-emergent, read-out: Visual Growth Reduction (%) 14 Days After Application CHEAL): 0 to 29% | pest or weed control at 140 g/ha ([1]; CHEAL: lambsquarters (Chenopodium album), 140 g ai/ha, post-emergent, read-out: Visual Growth Reduction (%) 14 Days After Application CHEAL): 0 to 29% | pest or weed control at 70 g/ha ([1]; EPHHL: wild poinsettia (Euphorbia heterophylla), 70 g ai/ha, post-emergent, read-out: Visual Growth Reduction (%) 14 Days After Application EPHHL): 30 to 44% | pest or weed control at 140 g/ha ([1]; EPHHL: wild poinsettia (Euphorbia heterophylla), 140 g ai/ha, post-emergent, read-out: Visual Growth Reduction (%) 14 Days After Application EPHHL): 45 to 59% | pest or weed control at 70 g/ha ([1]; HELAN: sunflower (Helianthus annuus), 70 g ai/ha, post-emergent, read-out: Visual Growth Reduction (%) 14 Days After Application HELAN): 0 to 29% | pest or weed control at 140 g/ha ([1]; HELAN: sunflower (Helianthus annuus), 140 g ai/ha, post-emergent, read-out: Visual Growth Reduction (%) 14 Days After Application HELAN): 45 to 59% | pest or weed control at 70 g/ha ([1]; VIOTR: wild pansy (Viola tricolor), 70 g ai/ha, post-emergent, read-out: Visual Growth Reduction (%) 14 Days After Application VIOTR): 0 to 29% | pest or weed control at 140 g/ha ([1]; VIOTR: wild pansy (Viola tricolor), 140 g ai/ha, post-emergent, read-out: Visual Growth Reduction (%) 14 Days After Application VIOTR): 0 to 29% | pest or weed control at 70 g/ha [2, 3]: 0 to 29% | pest or weed control at 140 g/ha [2, 3]: 0 to 29% | pest or weed control at 70 g/ha [2, 4]: 0 to 29% | pest or weed control at 140 g/ha [2, 4]: 0 to 29% | pest or weed control at 70 g/ha [2, 5]: 0 to 29% | pest or weed control at 140 g/ha [2, 5]: 0 to 29% | pest or weed control at 70 g/ha [2, 6]: 0 to 29% | pest or weed control at 140 g/ha [2, 6]: 0 to 29% | pest or weed control at 70 g/ha [2, 7]: 0 to 29% | pest or weed control at 140 g/ha [2, 7]: 0 to 29% | pest or weed control at 70 g/ha [2, 8]: 0 to 29% | pest or weed control at 140 g/ha [2, 8]: 0 to 29% | pest or weed control at 70 g/ha [2, 9]: 0 to 29% | pest or weed control at 140 g/ha [2, 9]: 0 to 29% | pest or weed control at 70 g/ha [2, 10]: 0 to 29% | pest or weed control at 140 g/ha [2, 10]: 0 to 29% | melting point: 165 to 166.5 °C

Nc1cc(-c2ccc(I)c(F)c2F)nc(C(=O)O)c1Cl [Compound 38]
pest or weed control at 70 g/ha ([1]; ABUTH: velvetleaf (Abutilon theophrasti), application rate 70 g ai/ha, read-out: Visual Growth Reduction (%) 14 Days After Application, ABUTH): 95 to 100% | pest or weed control at 140 g/ha ([1]; ABUTH: velvetleaf (Abutilon theophrasti), application rate 140 g ai/ha, read-out: Visual Growth Reduction (%) 14 Days After Application, ABUTH): 95 to 100% | pest or weed control at 70 g/ha ([1]; AMARE: redroot pigweed (Amaranthus retroflexus), application rate 70 g ai/ha, read-out: Visual Growth Reduction (%) 14 Days After Application, AMARE): 85 to 94% | pest or weed control at 140 g/ha ([1]; AMARE: redroot pigweed (Amaranthus retroflexus), application rate 140 g ai/ha, read-out: Visual Growth Reduction (%) 14 Days After Application, AMARE): 95 to 100% | pest or weed control at 70 g/ha ([1]; BRSNN: oilseed-rape, canola (Brassica napus), application rate 70 g ai/ha, read-out: Visual Growth Reduction (%) 14 Days After Application, BRSNN): 95 to 100% | pest or weed control at 140 g/ha ([1]; BRSNN: oilseed-rape, canola (Brassica napus), application rate 140 g ai/ha, read-out: Visual Growth Reduction (%) 14 Days After Application, BRSNN): 95 to 100% | pest or weed control at 70 g/ha ([1]; CHEAL: lambsquarters (Chenopodium album), application rate 70 g ai/ha, read-out: Visual Growth Reduction (%) 14 Days After Application, CHEAL): 85 to 94% | pest or weed control at 140 g/ha ([1]; CHEAL: lambsquarters (Chenopodium album), application rate 140 g ai/ha, read-out: Visual Growth Reduction (%) 14 Days After Application, CHEAL): 95 to 100% | pest or weed control at 70 g/ha ([1]; EPHHL: wild poinsettia (Euphorbia heterophylla), application rate 70 g ai/ha, read-out: Visual Growth Reduction (%) 14 Days After Application, EPHHL): 95 to 100% | pest or weed control at 140 g/ha ([1]; EPHHL: wild poinsettia (Euphorbia heterophylla), application rate 140 g ai/ha, read-out: Visual Growth Reduction (%) 14 Days After Application, EPHHL): 95 to 100% | pest or weed control at 70 g/ha ([1]; HELAN: sunflower (Helianthus annuus), application rate 70 g ai/ha, read-out: Visual Growth Reduction (%) 14 Days After Application, HELAN): 75 to 84% | pest or weed control at 140 g/ha ([1]; HELAN: sunflower (Helianthus annuus), application rate 140 g ai/ha, read-out: Visual Growth Reduction (%) 14 Days After Application, HELAN): 85 to 94% | pest or weed control at 70 g/ha ([1]; VIOTR: wild pansy (Viola tricolor), application rate 70 g ai/ha, read-out: Visual Growth Reduction (%) 14 Days After Application, VIOTR): 95 to 100% | pest or weed control at 140 g/ha ([1]; VIOTR: wild pansy (Viola tricolor), application rate 140 g ai/ha, read-out: Visual Growth Reduction (%) 14 Days After Application, VIOTR): 95 to 100% | pest or weed control at 70 g/ha [2, 11]: 60 to 74% | pest or weed control at 140 g/ha [2, 11]: 60 to 74% | pest or weed control at 70 g/ha [2, 3]: 95 to 100% | pest or weed control at 140 g/ha [2, 3]: 95 to 100% | pest or weed control at 70 g/ha [2, 4]: 75 to 84% | pest or weed control at 140 g/ha [2, 4]: 75 to 84% | pest or weed control at 70 g/ha [2, 5]: 95 to 100% | pest or weed control at 140 g/ha [2, 5]: 95 to 100% | pest or weed control at 70 g/ha [2, 6]: 0 to 29% | pest or weed control at 140 g/ha [2, 6]: 0 to 29% | pest or weed control at 70 g/ha [2, 7]: 95 to 100% | pest or weed control at 140 g/ha [2, 7]: 95 to 100% | pest or weed control at 70 g/ha [2, 8]: 85 to 94% | pest or weed control at 140 g/ha [2, 8]: 85 to 94% | pest or weed control at 70 g/ha [2, 10]: 85 to 94% | pest or weed control at 140 g/ha [2, 10]: 95 to 100% | melting point: 288 to 293 °C (dec.)

Reference: patent publication US9113629B2, “4-amino-6-(4-substituted-phenyl)-picolinates and 6-amino-2-(4-substituted-phenyl)-pyrimidine-4-carboxylates and their use as herbicides” (DOW AGROSCIENCES LLC, priority 2013, dated 2015)
